The text below walks through data of PubChem BioAssay (NCI).

Common to all, as to test: NCI anticancer screen, dose series, 48 h
Experiment [1] relates to SR leukemia.
Experiment [2] relates to CCRF-CEM leukemia.
The test system of experiment [3] is NCI/ADR-RES ovarian.
For experiment [4], the system named is SN12C renal.
The test system of experiment [5] is PC-3 prostate.
Experiment [6] has as its system K-562 leukemia.
Experiment [7] concerns EKVX NSCLC.
The subject of experiment [8] is 786-0 renal.
Experiment [9] relates to ACHN renal.
In experiment [10] the test system is HOP-62 NSCLC.
Experiment [11] relates to SNB-19 CNS.

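A five-concentration, 48-hour dose response in 96-well plates underlies each endpoint, interpolated linearly between surrounding concentrations. The concentration for full growth arrest is given as TGI.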

For the compound `Cc1cccc(Cn2c3c(c4cc(O)ccc42)C(=O)c2ccccc2C3=O)c1`, the TGI in experiment [1] was above 100 µM; in experiment [2], above 100 µM; in [3], above 67.8 µM; in experiment [4] it was above 100 µM; in experiment [5] it was 38.4 µM; in experiment [6] it was above 100 µM. For the same compound, the TGI in experiment [7] is 49 µM; in [8], 26.6 µM; in experiment [9], above 100 µM; in experiment [10], 40.9 µM; in experiment [11] it was above 100 µM.
Turning to `COC(=O)C1=C(C(=O)OC)SC(=C2SCSC3=C2SC(C(=O)OC)=C(C(=O)OC)C32SC3=C(CCCC3)S2)S1`, the TGI in [1], in experiment [2], in experiment [3], in experiment [4], in experiment [5] and in experiment [6] was above 100 µM throughout. Moreover, the TGI in experiment [7], in experiment [8], in experiment [9], in [10] and in [11] was above 100 µM in each case.
On to `NC1(c2cc3ccccc3s2)CCCC1`, for which the TGI in experiment [1] was 44.2 µM; in experiment [2], 42.3 µM; in experiment [3] it was above 100 µM; in [4], above 100 µM; in [5], 81.4 µM; in [6], 63 µM. Further, the TGI in experiment [7], in experiment [8], in experiment [9], in experiment [10] and in experiment [11] was above 100 µM throughout.
With `Cc1ccnc(NS(=O)(=O)c2ccc(N=[N+]=[N-])cc2)n1`, the TGI in [1] was above 100 µM; in experiment [2], above 49.7 µM; in [3] it was above 100 µM; in experiment [4], above 100 µM; in experiment [5], above 100 µM; in [6], above 100 µM. Further, the TGI in experiment [7], in experiment [8], in experiment [9], in experiment [10] and in [11] was above 100 µM in each case.
In the case of `Cc1ccc(-c2csc(=Nc3ccccc3)n2NC(=O)c2ccncc2)cc1`, the TGI in experiment [1] was above 100 µM; in experiment [2] it was above 67.5 µM; in [3], above 90.5 µM; in experiment [4] it was above 100 µM; in experiment [5], above 100 µM; in [6], 36.1 µM. Moreover, the TGI in experiment [7], in experiment [8], in experiment [9], in experiment [10] and in [11] was above 100 µM each time.
For the compound `CC(=O)c1c2c(c3ccccc3c1O)O[C@@H]1OCC[C@H]21`, the TGI in [1], in [2], in experiment [3], in experiment [4], in experiment [5] and in [6] was above 100 µM in each case. For the same compound, the TGI in experiment [7], in experiment [8], in [9], in [10] and in experiment [11] was above 100 µM in each case.
As for `CCCCCC1=CC(=O)C1(Cl)Cl`, the TGI in [1] is 19.4 µM; in [2], 6.15 µM; in experiment [3] it was 86.6 µM; in experiment [4] it was 72 µM; in experiment [5], 42.1 µM; in experiment [6] it was 19.8 µM. Also, the TGI in experiment [7] was 49.6 µM; in experiment [8], 35.8 µM; in [9], 23.4 µM; in experiment [10], 48.8 µM; in experiment [11] it was above 67.3 µM.
Consider `CC(=O)N1C(C(=O)NC2CCCCC2)CSC1c1ccccc1` (configuration not stated), for which the TGI in experiment [1], in experiment [2], in experiment [3], in experiment [4], in experiment [5] and in [6] was above 100 µM throughout. Moreover, the TGI in [7], in experiment [8], in experiment [9], in experiment [10] and in experiment [11] was above 100 µM in each case.
With `C=CC1(CC/C(=C\[N+](=O)[O-])c2ccc(OC)c(OC)c2)OCC(C)(C)CO1`, the TGI is 29.4 µM in experiment [1]; above 100 µM in [2]; 35.5 µM in experiment [3]; 47.6 µM in experiment [4]; 57 µM in experiment [5]; above 100 µM in experiment [6]. Moreover, the TGI in [7] was determined as 40.1 µM; in experiment [8], 37.9 µM; in experiment [9], 37.9 µM; in [10], 60.7 µM; in experiment [11], 35.7 µM.
As to `N#CC(NCc1cccc(CNC(C#N)c2ccccc2)c1)c1ccccc1` (configuration not stated), the TGI in experiment [1] was above 100 µM; in [2], 36.5 µM; in experiment [3] it was above 100 µM; in experiment [4], above 100 µM; in experiment [5], above 100 µM; in experiment [6], 31.9 µM. The TGI in experiment [7], in experiment [8], in experiment [9], in experiment [10] and in experiment [11] was above 100 µM throughout.
Consider `Cc1cc(C)nc(NS(=O)(=O)c2ccc(NC(=O)c3ccc4nc5ccccc5c(Nc5ccc(S(N)(=O)=O)cc5)c4c3)cc2)n1`, for which the TGI was above 100 µM in experiment [1]; 78.3 µM in experiment [2]; above 100 µM in experiment [3]; above 100 µM in experiment [4]; above 100 µM in experiment [5]; above 100 µM in experiment [6]. Further, the TGI in experiment [7], in experiment [8], in [9], in [10] and in [11] was above 100 µM in each case.
Consider `O=C(OCc1ccccc1)N1CCNCCN(C(=O)OCc2ccccc2)CCNCC1`, for which the TGI in experiment [1], in [2], in [3], in [4], in experiment [5] and in [6] was above 100 µM throughout. The TGI was above 100 µM in experiment [7]; 47.9 µM in [8]; above 100 µM in experiment [9]; 33.4 µM in experiment [10]; above 100 µM in [11].
